Data: ChEMBL document CHEMBL1201862, “PubChem BioAssay data set” (2004)
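Assay format: 96-well plates, 48-hour exposure. Here, GI50 denotes the concentration required for 50% inhibition of growth.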 Activity calls are given as the source filed them. No stated cut-off is given here; in the data, active = GI50 up to about 1.1 µM and inactive = higher.

Columns and labels:
Test in all cases: NCI anticancer screen, dose series, 48 h
SR = tested on: SR
NCI-H460 = tested on: NCI-H460
SNB-75 = tested on: SNB-75
SF-268 = tested on: SF-268
SK-MEL-5 = tested on: SK-MEL-5
NCI-H226 = tested on: NCI-H226
SK-MEL-28 = tested on: SK-MEL-28
COLO 205 = tested on: COLO 205
HCC 2998 = tested on: HCC 2998
TK-10 = tested on: TK-10
K562 = tested on: K562
OVCAR-8 = tested on: OVCAR-8
NCI-H522 = tested on: NCI-H522
HCT-116 = tested on: HCT-116
IGROV-1 = tested on: IGROV-1
LXFL 529 = tested on: LXFL 529
UACC-62 = tested on: UACC-62
KM12 = tested on: KM12
SF-539 = tested on: SF-539
A549 = tested on: A549
SNB-19 = tested on: SNB-19
ACHN = tested on: ACHN
UACC-257 = tested on: UACC-257
NCI-H23 = tested on: NCI-H23
CCRF-CEM = tested on: CCRF-CEM
HOP-62 = tested on: HOP-62
M19-MEL = tested on: M19-MEL
RPMI-8226 = tested on: RPMI-8226
OVCAR-3 = tested on: OVCAR-3
UO-31 = tested on: UO-31
U-251 = tested on: U-251
SW-620 = tested on: SW-620
HOP-92 = tested on: HOP-92
SK-OV-3 = tested on: SK-OV-3
SF-295 = tested on: SF-295
OVCAR-5 = tested on: OVCAR-5
MOLT-4 = tested on: MOLT-4
HL-60 = tested on: HL-60
HT-29 = tested on: HT-29
DLD-1 = tested on: DLD-1
Hs-578T = tested on: Hs-578T
LOX IMVI = tested on: LOX IMVI
RXF 393 = tested on: RXF 393
A498 = tested on: A498
MDA-N = tested on: MDA-N
T47D = tested on: T47D
SN12C = tested on: SN12C
OVCAR-4 = tested on: OVCAR-4
MDA-MB-435 = tested on: MDA-MB-435
PC-3 = tested on: PC-3
MCF7 = tested on: MCF7
NCI/ADR-RES = tested on: NCI/ADR-RES
CAKI-1 = tested on: CAKI-1
SK-MEL-2 = tested on: SK-MEL-2
M14 = tested on: M14
Malme-3M = tested on: Malme-3M
EKVX = tested on: EKVX
HCT-15 = tested on: HCT-15
MDA-MB-231 = tested on: MDA-MB-231
DU-145 = tested on: DU-145
BT-549 = tested on: BT-549
786-0 = tested on: 786-0

With `COc1ccc(/C=N/n2cnc3c(sc(=S)n3-c3ccccc3)c2=O)cc1` the GI50 (SR) was 29.2 µM (inactive), the GI50 (NCI-H460) was 35.8 µM (inactive) and the GI50 (SNB-75) was 2.47 µM (inactive). The GI50 (SF-268) was 6.28 µM (inactive), the GI50 (SK-MEL-5) was 24.7 µM (inactive) and the GI50 (NCI-H226) was 18.3 µM (inactive). For the same molecule, the GI50 (SK-MEL-28) was 13.2 µM (inactive), the GI50 (COLO 205) was 50.8 µM (inactive) and the GI50 (HCC 2998) was 23.9 µM (inactive). For the same molecule, the GI50 (TK-10) was 25.3 µM (inactive), the GI50 (K562) was 15.8 µM (inactive) and the GI50 (OVCAR-8) was 26.5 µM (inactive). The GI50 (NCI-H522) was 13.5 µM (inactive), the GI50 (HCT-116) was > 100 µM (inactive) and the GI50 (IGROV-1) was 37 µM (inactive). For the same molecule, the GI50 (LXFL 529) was 16.9 µM (inactive), the GI50 (UACC-62) was 16.7 µM (inactive) and the GI50 (KM12) was > 100 µM (inactive). For the same molecule, the GI50 (SF-539) was 12.8 µM (inactive), the GI50 (A549) was 45.5 µM (inactive) and the GI50 (SNB-19) was 17.7 µM (inactive). For the same molecule, the GI50 (ACHN) was 27.6 µM (inactive), the GI50 (UACC-257) was 23.6 µM (inactive) and the GI50 (NCI-H23) was 23.6 µM (inactive). The GI50 (CCRF-CEM) was 18.3 µM (inactive), the GI50 (HOP-62) was 12.2 µM (inactive) and the GI50 (M19-MEL) was 33.2 µM (inactive). For the same molecule, the GI50 (RPMI-8226) was 16.4 µM (inactive), the GI50 (OVCAR-3) was 14.9 µM (inactive) and the GI50 (UO-31) was 40.4 µM (inactive). For the same molecule, the GI50 (U-251) was 23.2 µM (inactive), the GI50 (SW-620) was 99.3 µM (inactive) and the GI50 (HOP-92) was 4.43 µM (inactive). For the same molecule, the GI50 (SK-OV-3) was 13.2 µM (inactive), the GI50 (SF-295) was 10 µM (inactive) and the GI50 (OVCAR-5) was 1.68 µM (inactive). The GI50 (MOLT-4) was 20.4 µM (inactive), the GI50 (HL-60) was 12.5 µM (inactive) and the GI50 (HT-29) was 24.5 µM (inactive). For the same molecule, the GI50 (DLD-1) was 26.8 µM (inactive).
In the case of `C[C@]12CCC3C4=C(CCC3C1CCC2=O)C(=O)[C@H]1O[C@H]1C4=O` (stereo partly drawn), the GI50 (Hs-578T) is reported as 9.51 µM (inactive), the GI50 (SR) is reported as 0.538 µM (active) and the GI50 (LOX IMVI) is reported as 1.89 µM (inactive). The GI50 (NCI-H460) was 7.46 µM (inactive), the GI50 (SNB-75) was 3.23 µM (inactive) and the GI50 (SF-268) was 2.31 µM (inactive). The GI50 (RXF 393) was 1.6 µM (inactive), the GI50 (SK-MEL-5) was 10 µM (inactive) and the GI50 (NCI-H226) was 2.18 µM (inactive). For the same molecule, the GI50 (SK-MEL-28) was 12.3 µM (inactive), the GI50 (COLO 205) was 4.33 µM (inactive) and the GI50 (A498) was 17.1 µM (inactive). The GI50 (HCC 2998) was 1.9 µM (inactive), the GI50 (MDA-N) was 7.18 µM (inactive) and the GI50 (T47D) was 0.61 µM (active). For the same molecule, the GI50 (SN12C) was 2.64 µM (inactive), the GI50 (TK-10) was 3.35 µM (inactive) and the GI50 (K562) was 1.29 µM (inactive). The GI50 (OVCAR-8) was 2.09 µM (inactive), the GI50 (OVCAR-4) was 3.05 µM (inactive) and the GI50 (MDA-MB-435) was 11.8 µM (inactive). The GI50 (PC-3) was 4.18 µM (inactive), the GI50 (NCI-H522) was 1.84 µM (inactive) and the GI50 (MCF7) was 2.18 µM (inactive). The GI50 (HCT-116) was 0.453 µM (active), the GI50 (IGROV-1) was 2.24 µM (inactive) and the GI50 (NCI/ADR-RES) was 4.02 µM (inactive). The GI50 (UACC-62) was 2.94 µM (inactive), the GI50 (CAKI-1) was 0.275 µM (active) and the GI50 (KM12) was 5.43 µM (inactive). The GI50 (SF-539) was 1.92 µM (inactive), the GI50 (A549) was 11 µM (inactive) and the GI50 (SNB-19) was 15.6 µM (inactive). The GI50 (ACHN) was 2.57 µM (inactive), the GI50 (SK-MEL-2) was 12.2 µM (inactive) and the GI50 (M14) was 4.05 µM (inactive). The GI50 (Malme-3M) was 21.6 µM (inactive), the GI50 (UACC-257) was 17.4 µM (inactive) and the GI50 (NCI-H23) was 2.77 µM (inactive). The GI50 (CCRF-CEM) was 1.12 µM (inactive), the GI50 (EKVX) was 14.3 µM (inactive) and the GI50 (HCT-15) was 1.36 µM. The GI50 (HOP-62) was 3.27 µM (inactive), the GI50 (MDA-MB-231) was 1.8 µM (inactive) and the GI50 (RPMI-8226) was 0.641 µM (active). For the same molecule, the GI50 (OVCAR-3) was 1.46 µM (inactive), the GI50 (UO-31) was 2.31 µM (inactive) and the GI50 (U-251) was 2.75 µM (inactive). For the same molecule, the GI50 (SW-620) was 1.78 µM (inactive), the GI50 (HOP-92) was 7.67 µM (inactive) and the GI50 (SK-OV-3) was 13.9 µM (inactive). The GI50 (SF-295) was 15.3 µM (inactive), the GI50 (OVCAR-5) was 3.77 µM (inactive) and the GI50 (MOLT-4) was 0.785 µM (active). The GI50 (HL-60) was 2.67 µM (inactive), the GI50 (HT-29) was 1.36 µM (inactive) and the GI50 (DU-145) was 3.12 µM (inactive). The GI50 (BT-549) was 1.98 µM (inactive) and the GI50 (786-0) was 1.83 µM (inactive).
For `CC(C)NC(=O)OCc1c(COC(=O)NC(C)C)c(-c2ccc[n+](COC(=O)CC(C)(C)C)c2)n2c1CCC2`, the GI50 (Hs-578T) was 87.7 µM (inactive), the GI50 (SR) was 71.1 µM (inactive) and the GI50 (LOX IMVI) was 78.3 µM (inactive). The GI50 (NCI-H460) was 51.5 µM (inactive), the GI50 (SNB-75) was 67.6 µM (inactive) and the GI50 (SF-268) was 54 µM (inactive). For the same molecule, the GI50 (RXF 393) was 38.7 µM (inactive), the GI50 (SK-MEL-5) was > 100 µM (inactive) and the GI50 (NCI-H226) was > 100 µM (inactive). The GI50 (SK-MEL-28) was > 100 µM (inactive), the GI50 (COLO 205) was 89.3 µM (inactive) and the GI50 (A498) was > 100 µM (inactive). The GI50 (HCC 2998) was > 100 µM (inactive), the GI50 (MDA-N) was > 100 µM (inactive) and the GI50 (T47D) was > 100 µM (inactive). For the same molecule, the GI50 (SN12C) was 73.8 µM (inactive), the GI50 (TK-10) was > 100 µM (inactive) and the GI50 (K562) was > 100 µM (inactive). The GI50 (OVCAR-8) was 81.3 µM (inactive), the GI50 (OVCAR-4) was > 100 µM (inactive) and the GI50 (MDA-MB-435) was > 100 µM (inactive). For the same molecule, the GI50 (PC-3) was 58.5 µM (inactive), the GI50 (NCI-H522) was 31.6 µM (inactive) and the GI50 (MCF7) was 70.1 µM (inactive). For the same molecule, the GI50 (HCT-116) was > 100 µM (inactive), the GI50 (IGROV-1) was > 100 µM (inactive) and the GI50 (NCI/ADR-RES) was 71 µM (inactive). The GI50 (UACC-62) was 39.9 µM (inactive), the GI50 (CAKI-1) was 38.5 µM (inactive) and the GI50 (KM12) was > 100 µM (inactive). For the same molecule, the GI50 (SF-539) was 84.9 µM (inactive), the GI50 (A549) was > 100 µM (inactive) and the GI50 (SNB-19) was > 100 µM (inactive). The GI50 (ACHN) was 35.6 µM (inactive), the GI50 (SK-MEL-2) was > 100 µM (inactive) and the GI50 (M14) was > 100 µM (inactive). The GI50 (Malme-3M) was > 100 µM (inactive), the GI50 (UACC-257) was > 100 µM (inactive) and the GI50 (NCI-H23) was 48.6 µM (inactive). For the same molecule, the GI50 (CCRF-CEM) was > 100 µM (inactive), the GI50 (EKVX) was > 100 µM (inactive) and the GI50 (HCT-15) was over 100 µM. The GI50 (HOP-62) was 56.6 µM (inactive), the GI50 (MDA-MB-231) was > 100 µM (inactive) and the GI50 (RPMI-8226) was > 100 µM (inactive). For the same molecule, the GI50 (OVCAR-3) was > 100 µM (inactive), the GI50 (UO-31) was 93.8 µM (inactive) and the GI50 (U-251) was 94.8 µM (inactive). For the same molecule, the GI50 (SW-620) was > 100 µM (inactive), the GI50 (HOP-92) was > 100 µM (inactive) and the GI50 (SK-OV-3) was > 100 µM (inactive). The GI50 (SF-295) was 60.5 µM (inactive), the GI50 (OVCAR-5) was > 100 µM (inactive) and the GI50 (MOLT-4) was > 100 µM (inactive). For the same molecule, the GI50 (HL-60) was > 100 µM (inactive), the GI50 (HT-29) was > 100 µM (inactive) and the GI50 (DU-145) was > 100 µM (inactive). The GI50 (BT-549) was > 100 µM (inactive) and the GI50 (786-0) was 38.4 µM (inactive).
